The source of these data is publication PMC10111423, “Antimalarial Imidazopyridines Incorporating an Intramolecular Hydrogen Bonding Motif: Medicinal Chemistry and Mechanistic Studies” (ACS Infectious Diseases, 2023).

Assay [1] relates to chloroquine-sensitive (NF54) strain of P. falciparum. As to the kind of experiment: In vitro asexual blood-stage antiplasmodium pLDH assay, NF54 strain. Format: cell-based. As to conditions: Plasmodium falciparum, NF54; pLDH, 72 h, n ≥ 3; read-out: In vitro antiplasmodium activity IC50 PfNF54 strain. The procedure: Compounds were screened against multi-drug-resistant (K1) and sensitive (NF54) strains of P. falciparum in vitro using a parasite lactate dehydrogenase assay (pLDH) (the method is described fully in the Supporting Information). […]
In vitro Asexual Blood Stage Antiplasmodium Assay
Parasites were cultured as per the method of Trager and Jensen,1 with modifications. IC50 values were determined using parasite lactate dehydrogenase as a marker for survival (Makler […]
et al, 1993). The test samples were prepared to a 10 mmol/L stock solution in 100% DMSO.
Samples were tested as a suspension if not completely dissolved. Further dilutions to the desired starting concentration were freshly prepared in growth media on each occasion of the experiment. The standard antimalarial drugs chloroquine (CQ) and artesunate (Arts) were used as the reference drug in all experiments. A full dose-response was performed for all compounds in a 96-well plate to determine the concentration inhibiting 50% of parasite growth (IC50– value). Test samples were tested at a starting concentration of 6mmol/L, which was then serially diluted 2-fold in growth medium to generate the tested concentration range. The same dilution technique was used for all samples. CQ and Arts were tested from a starting concentration of 1µg/mL. The highest concentration of solvent to which the parasites were exposed was <0.1% and has no measurable effect on the parasite viability (data not shown).
The assay plate was incubated at 37 °C for 72h in a sealed gas chamber under 3% O2 and 4% CO2 with the balance being N2. After 72h, the wells in the assay plate were gently resuspended, and 15µL from each well was transferred to a duplicate plate containing 100µL of Malstat reagent and 25µL of nitroblue tetrazolium solution in each well. Plates were left to develop for 20 minutes in the dark and then absorbance of each well was quantified using a spectrophotometer at 620nm wavelength.
The remaining population of parasites at each concentration of the test compound was determined by comparing the absorbance of each well to the absorbance of a well containing […]
the drug-free control. […]
The initial 100 µg/mL solution is serially diluted 10-

The next assay relates to β-hematin. In words: β-Hematin inhibition assay (BHIA), cell-free NP-40 mediated. It counts as biochemical. The conditions noted are these: mean of n = 3. How it is done: page 20: fold to attain six assay concentrations of 100-0.001 μg/mL. […] was used as the reference compound in this assay. The highest concentration of DMSO, which was used as the negative control, had no measurable effect on cell viability. After 44 hours of exposure of the cells to the test compounds, a solution of MTT was added. This was followed by an additional 4 hours of incubation at 37 °C. The assay plates were centrifuged, medium removed, and DMSO was added to the crystals. The amount of formazan was ascertained by measuring the absorbance at 540 nm. GraphPad Prism software was then used to generate IC50 values through a non-linear dose-response curve analysis. β-Hematin Inhibition Assay 20 mM stock solutions of controls and test compounds were made in DMSO. A solution […] was added to every well in columns 1-11 of a 96-well plate. 140 μL of water and 40 μL of 305.5 μM NP-40 were added to column 12 to mediate the formation of beta-hematin. 20 μL of test compounds (20 mM) were added to column 12 and 100 μL of this solution serially diluted to column 2, leaving column 1 blank (0 μM of test compound). 178.8 μL aliquot of hematin stock was suspended in 20 ml of a 1 M acetate buffer at pH 4.9. 100 μL of this hematin […] pH 7.4 and 50% pyridine) and 60 μL of acetone were added to all wells. The absorbances of plate wells were recorded at 405 nm on a SpectraMax plate reader. Sigmoidal dose-response curves with variable slopes were fitted to the absorbance data using GraphPad Prism to obtain the IC50 values for each compound. In vitro Microsomal Stability Assay The in vitro microsomal stability assay was performed in duplicate in a 96-well micro titre […] individually in human (pool of 50, mixed gender), rat (pool of 711, male Sprague Dawley) and mouse (pool of 1634, male CD1) liver microsomes (final protein concentration of 0.4 mg/mL; Xenotech, Kansas, USA), suspended in 0.1M phosphate buffer (pH 7.4). Incubations were S20

For the molecule `CCN(CCNc1cc2[nH]c(C3CCCC3)nc2cn1)Cc1ccc(Cl)cc1O` [Compound 1, 5-Chloro-2-(((2-((2-cyclopentyl-1H-imidazo[4,5-c]pyridin-6-yl)amino)ethyl)(ethyl)amino)methyl)phenol], the results for the IC50 (in assay [1]; in the assay with β-hematin) were 0.34 µM and 18 µM, respectively.
In the same order, the values of `CCN(CCNc1cc2[nH]c(C3CC3)nc2cn1)Cc1ccc(Cl)cc1O` [Compound 5, 5-Chloro-2-(((2-((2-cyclopropyl-1H-imidazo[4,5-c]pyridin-6-yl)amino)ethyl)(ethyl)amino)methyl)phenol] are 0.39 µM and 16 µM.
In the same order, the values of `CCN(CCNc1cc2[nH]c(C3(C)CC3)nc2cn1)Cc1ccc(Cl)cc1O` [Compound 6, 5-Chloro-2-((ethyl(2-((2-(1-methylcyclopropyl)-1H-imidazo[4,5-c]pyridin-6-yl)amino)ethyl)amino)methyl)phenol] are 0.49 µM and 33 µM.
For `CCN(CCNc1cc2[nH]c(-c3cccc(C(F)(F)F)c3)nc2cn1)Cc1ccc(Cl)cc1O` [Compound 14, 5-Chloro-2-((ethyl(2-((2-(3-(trifluoromethyl)phenyl)-1H-imidazo[4,5-c]pyridin-6-yl)amino)ethyl)amino)methyl)phenol], in that order: 0.08 µM and 9 µM.
On to `CCN(CCNc1cc2[nH]c(-c3ccc(C(F)(F)F)nc3)nc2cn1)Cc1ccc(Cl)cc1O` [Compound 19, 5-Chloro-2-((ethyl(2-((2-(6-(trifluoromethyl)pyridin-3-yl)-1H-imidazo[4,5-c]pyridin-6-yl)amino)ethyl)amino)methyl)phenol], for which the figures for the IC50 (in assay [1]; with β-hematin) were 0.38 µM and 65 µM, respectively.
